Reference: ChEMBL document CHEMBL1201862, “PubChem BioAssay data set” (2004)
The source made the active and inactive calls.

Key:
[1] = NIH-3T3 fibroblast cytotoxicity, dose response, cytotoxicity control, cell-based, fluorescence, Alamar Blue, secondary assay (AID 2327); type: functional;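 also: NIH-3T3 mouse fibroblasts cultured with fluconazole at 8 µg/mL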
Protein Wnt-3a = Protein Wnt-3a (Mus musculus, UniProt P27467); assay: antagonism of Wnt3a pathway luciferase reporter – Wnt-LIGHT cells, luminescence, selectivity assay for Gli-SUFU antagonist project, dose response (AID 651570); type: functional; details: read-out: IC50_Mean;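 also: Wnt-LIGHT reporter cells stimulated with conditioned medium from Wnt3a-producing cells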
Protein Wnt-3a, sequence (P27467 whole entry): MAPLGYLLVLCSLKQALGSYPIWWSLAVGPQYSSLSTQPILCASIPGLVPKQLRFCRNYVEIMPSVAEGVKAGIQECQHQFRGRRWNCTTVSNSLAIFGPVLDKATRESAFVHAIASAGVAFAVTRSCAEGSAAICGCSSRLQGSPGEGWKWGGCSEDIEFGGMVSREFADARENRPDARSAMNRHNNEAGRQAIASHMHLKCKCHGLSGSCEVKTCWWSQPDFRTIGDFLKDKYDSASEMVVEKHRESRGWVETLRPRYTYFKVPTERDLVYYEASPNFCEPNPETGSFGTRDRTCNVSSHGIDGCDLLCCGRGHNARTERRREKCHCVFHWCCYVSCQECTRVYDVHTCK

[2] = fluconazole-exposed Candida albicans growth modulators – fluorescence, retest, confirmation (AID 2467); type: functional, cell-based
[3] = biological target: T1, COUP transcription factor 2 (Homo sapiens, UniProt P24468); assay: Luminescence-based cell-based high throughput dose response assay to identify inhibitors of COUP-TFII (NR2F2).; type: functional;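 also: HEK293 cells transiently cotransfected with COUP-TFII expression vector and reporter; luciferase reporter luminescence driven by COUP-TFII from the pX2-168 reporter plasmid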
T1 sequence (P24468 whole entry): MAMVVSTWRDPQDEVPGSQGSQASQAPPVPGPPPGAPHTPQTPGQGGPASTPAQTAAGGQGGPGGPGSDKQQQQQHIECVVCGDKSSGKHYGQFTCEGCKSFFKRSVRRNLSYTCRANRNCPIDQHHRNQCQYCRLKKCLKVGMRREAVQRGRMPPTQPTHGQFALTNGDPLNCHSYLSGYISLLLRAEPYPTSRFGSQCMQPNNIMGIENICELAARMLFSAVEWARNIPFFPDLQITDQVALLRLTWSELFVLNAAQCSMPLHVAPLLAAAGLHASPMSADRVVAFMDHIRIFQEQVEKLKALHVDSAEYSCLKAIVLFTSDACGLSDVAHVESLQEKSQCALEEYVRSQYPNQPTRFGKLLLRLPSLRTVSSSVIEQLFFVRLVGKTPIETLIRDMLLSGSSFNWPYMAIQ

[4] = biological target: Benomyl/methotrexate resistance protein (Candida albicans, UniProt P28873); assay: Candida albicans Mdr1 pump inhibition curves – singleplex, Cherry Pick1 hits, dose response (AID 588608); type: functional
[5] = biological target: Voltage-dependent T-type calcium channel subunit alpha-1H (Homo sapiens, UniProt O95180); type: functional;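 also: channel activity triggered by adding a high calcium stimulation buffer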
Voltage-dependent T-type calcium channel subunit alpha-1H, sequence (O95180 whole entry): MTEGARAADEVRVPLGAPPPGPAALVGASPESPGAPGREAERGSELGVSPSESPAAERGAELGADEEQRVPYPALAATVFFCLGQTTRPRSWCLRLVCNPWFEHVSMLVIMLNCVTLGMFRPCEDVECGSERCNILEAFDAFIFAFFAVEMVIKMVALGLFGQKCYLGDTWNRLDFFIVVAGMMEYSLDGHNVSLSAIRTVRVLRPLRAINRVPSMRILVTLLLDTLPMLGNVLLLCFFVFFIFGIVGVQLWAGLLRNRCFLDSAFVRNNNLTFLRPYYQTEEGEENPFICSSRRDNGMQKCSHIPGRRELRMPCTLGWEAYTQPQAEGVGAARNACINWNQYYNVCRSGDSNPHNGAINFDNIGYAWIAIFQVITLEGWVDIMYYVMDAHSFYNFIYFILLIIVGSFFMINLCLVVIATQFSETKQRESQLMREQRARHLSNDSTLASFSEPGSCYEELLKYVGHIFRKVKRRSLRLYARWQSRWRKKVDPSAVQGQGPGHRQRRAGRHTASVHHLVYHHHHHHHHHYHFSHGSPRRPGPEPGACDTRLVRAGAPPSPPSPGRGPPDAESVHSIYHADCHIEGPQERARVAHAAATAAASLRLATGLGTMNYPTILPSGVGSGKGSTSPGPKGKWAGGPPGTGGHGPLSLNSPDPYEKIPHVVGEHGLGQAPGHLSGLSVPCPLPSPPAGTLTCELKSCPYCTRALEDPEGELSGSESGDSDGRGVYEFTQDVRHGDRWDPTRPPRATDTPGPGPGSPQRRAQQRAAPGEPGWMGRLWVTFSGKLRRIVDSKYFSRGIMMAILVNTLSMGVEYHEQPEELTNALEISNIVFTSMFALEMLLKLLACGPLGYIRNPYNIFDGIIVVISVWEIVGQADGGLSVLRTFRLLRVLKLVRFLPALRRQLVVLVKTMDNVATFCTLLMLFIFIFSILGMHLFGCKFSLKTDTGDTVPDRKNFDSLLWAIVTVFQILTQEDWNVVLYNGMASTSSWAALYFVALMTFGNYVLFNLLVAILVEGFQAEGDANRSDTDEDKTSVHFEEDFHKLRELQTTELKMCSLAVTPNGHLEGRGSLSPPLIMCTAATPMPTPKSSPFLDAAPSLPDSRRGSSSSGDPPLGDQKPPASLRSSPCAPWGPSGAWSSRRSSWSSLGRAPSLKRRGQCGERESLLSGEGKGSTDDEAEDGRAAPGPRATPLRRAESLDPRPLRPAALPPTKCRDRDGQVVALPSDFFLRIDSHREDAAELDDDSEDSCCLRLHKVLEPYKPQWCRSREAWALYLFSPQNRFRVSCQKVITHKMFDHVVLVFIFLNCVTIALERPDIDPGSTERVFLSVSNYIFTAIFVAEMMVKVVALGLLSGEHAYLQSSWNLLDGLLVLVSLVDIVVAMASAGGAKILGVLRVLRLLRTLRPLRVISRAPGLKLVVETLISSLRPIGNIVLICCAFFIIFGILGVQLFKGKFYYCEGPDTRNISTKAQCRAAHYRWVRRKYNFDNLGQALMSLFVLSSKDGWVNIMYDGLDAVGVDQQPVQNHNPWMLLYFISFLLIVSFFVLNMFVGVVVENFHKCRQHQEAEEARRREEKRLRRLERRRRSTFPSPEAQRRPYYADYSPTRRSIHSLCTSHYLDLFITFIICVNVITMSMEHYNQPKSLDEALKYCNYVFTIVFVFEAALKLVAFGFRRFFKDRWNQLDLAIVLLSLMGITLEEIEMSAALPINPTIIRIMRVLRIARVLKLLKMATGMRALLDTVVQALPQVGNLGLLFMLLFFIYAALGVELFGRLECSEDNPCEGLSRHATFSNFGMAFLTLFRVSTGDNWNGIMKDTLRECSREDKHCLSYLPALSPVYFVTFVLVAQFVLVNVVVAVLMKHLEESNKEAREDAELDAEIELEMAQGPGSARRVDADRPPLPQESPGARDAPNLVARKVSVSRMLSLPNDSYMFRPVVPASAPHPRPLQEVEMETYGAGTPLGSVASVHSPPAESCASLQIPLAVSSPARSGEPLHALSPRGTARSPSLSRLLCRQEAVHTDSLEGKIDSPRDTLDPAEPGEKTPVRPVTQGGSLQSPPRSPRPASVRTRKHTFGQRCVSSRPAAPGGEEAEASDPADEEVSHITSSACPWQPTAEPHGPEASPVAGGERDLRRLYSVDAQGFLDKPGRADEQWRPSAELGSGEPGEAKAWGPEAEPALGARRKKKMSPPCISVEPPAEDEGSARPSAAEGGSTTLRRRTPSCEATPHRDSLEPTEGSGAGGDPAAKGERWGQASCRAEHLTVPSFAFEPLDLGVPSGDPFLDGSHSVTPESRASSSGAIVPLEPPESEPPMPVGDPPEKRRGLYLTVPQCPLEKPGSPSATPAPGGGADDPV

[6] = biological target: Potassium voltage-gated channel subfamily KQT member 2 (Rattus norvegicus, UniProt O88943); assay: blockers of KCNQ2 channel current – cell-based, automated electrophysiology, set II, rat KCNQ2, dose response (AID 588637); type: functional
Potassium voltage-gated channel subfamily KQT member 2, sequence (O88943 whole entry): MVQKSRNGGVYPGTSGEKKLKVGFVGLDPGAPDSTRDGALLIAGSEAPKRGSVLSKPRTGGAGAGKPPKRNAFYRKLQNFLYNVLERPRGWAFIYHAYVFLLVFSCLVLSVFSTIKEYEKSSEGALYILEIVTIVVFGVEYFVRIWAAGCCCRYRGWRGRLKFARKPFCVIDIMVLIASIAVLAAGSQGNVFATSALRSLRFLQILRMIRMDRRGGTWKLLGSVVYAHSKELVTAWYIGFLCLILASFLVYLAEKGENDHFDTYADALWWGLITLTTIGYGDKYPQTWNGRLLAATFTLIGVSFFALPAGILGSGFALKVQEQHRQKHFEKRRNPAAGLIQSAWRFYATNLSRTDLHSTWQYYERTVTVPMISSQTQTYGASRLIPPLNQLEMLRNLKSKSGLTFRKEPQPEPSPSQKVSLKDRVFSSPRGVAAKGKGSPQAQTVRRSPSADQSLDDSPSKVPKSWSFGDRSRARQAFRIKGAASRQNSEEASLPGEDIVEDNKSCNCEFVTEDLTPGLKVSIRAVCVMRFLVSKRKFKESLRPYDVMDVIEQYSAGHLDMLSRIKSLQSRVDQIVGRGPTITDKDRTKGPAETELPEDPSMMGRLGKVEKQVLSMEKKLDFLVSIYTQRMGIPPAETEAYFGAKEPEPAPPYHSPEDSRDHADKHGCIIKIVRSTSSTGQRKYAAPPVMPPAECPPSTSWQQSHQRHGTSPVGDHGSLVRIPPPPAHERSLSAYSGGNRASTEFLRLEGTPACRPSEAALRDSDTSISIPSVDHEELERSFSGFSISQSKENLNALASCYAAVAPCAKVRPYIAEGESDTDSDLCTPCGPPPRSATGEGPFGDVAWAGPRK

[7] = biological target: T2, High affinity choline transporter 1 (Homo sapiens, UniProt Q9GZV3); assay: human choline transporter potentiators, potency – cell-based, 10-point CRC, membrane potential dye, dose response (AID 602376); type: functional
T2 sequence (Q9GZV3 whole entry): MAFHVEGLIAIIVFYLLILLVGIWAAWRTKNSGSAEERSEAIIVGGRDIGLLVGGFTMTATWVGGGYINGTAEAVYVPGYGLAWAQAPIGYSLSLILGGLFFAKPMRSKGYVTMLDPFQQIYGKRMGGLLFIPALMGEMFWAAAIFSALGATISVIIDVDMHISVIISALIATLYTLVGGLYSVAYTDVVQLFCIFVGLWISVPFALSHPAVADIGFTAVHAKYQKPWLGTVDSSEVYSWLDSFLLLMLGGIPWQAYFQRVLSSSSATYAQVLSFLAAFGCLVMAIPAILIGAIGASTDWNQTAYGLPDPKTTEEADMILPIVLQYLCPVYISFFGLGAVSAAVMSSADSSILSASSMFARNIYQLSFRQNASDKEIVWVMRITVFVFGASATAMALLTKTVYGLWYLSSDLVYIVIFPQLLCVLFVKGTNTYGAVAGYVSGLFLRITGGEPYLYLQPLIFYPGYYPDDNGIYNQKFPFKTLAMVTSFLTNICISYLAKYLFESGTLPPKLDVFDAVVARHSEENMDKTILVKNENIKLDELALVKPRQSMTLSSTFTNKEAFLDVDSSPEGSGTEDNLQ

[8] = biological target: 26S proteasome non-ATPase regulatory subunit 14 (Homo sapiens, UniProt O00487); assay: inhibition of proteasome subunit RPN11 – biochemical, fluorescence polarization, uHTS hits, confirmation (AID 602368); type: functional
Prothrombin = Prothrombin (Bos taurus, UniProt P00735); assay: thrombin protease inhibitors – biochemical, fluorescence polarization, uHTS hits, dose response (AID 602369); type: functional
[9] = biological target: 72 kDa type IV collagenase (Homo sapiens, UniProt P08253); assay: Dose Response validation of uHTS RPN11 inhibitor hits using a MMP-2 Fluorescence assay.; type: functional
[10] = biological target: G-protein coupled receptor 55 (Homo sapiens, UniProt Q9Y2T6); assay: selective activators of receptor GPR55 – imaging, U2OS cells, beta-arrestin-GFP redistribution, primary screen (AID 1961); type: functional
[11] = biological target: Apoptotic protease-activating factor 1 (Homo sapiens, UniProt O14727); assay: SAR analysis of small molecule Activators of Apaf-1 in a Fluorescent assay.; type: functional; details: read-out: EC50_Mean;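 also: caspase-3 cleavage of fluorogenic Rh110 DEVD substrate downstream of apoptosome activation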
Apoptotic protease-activating factor 1, sequence (O14727 whole entry): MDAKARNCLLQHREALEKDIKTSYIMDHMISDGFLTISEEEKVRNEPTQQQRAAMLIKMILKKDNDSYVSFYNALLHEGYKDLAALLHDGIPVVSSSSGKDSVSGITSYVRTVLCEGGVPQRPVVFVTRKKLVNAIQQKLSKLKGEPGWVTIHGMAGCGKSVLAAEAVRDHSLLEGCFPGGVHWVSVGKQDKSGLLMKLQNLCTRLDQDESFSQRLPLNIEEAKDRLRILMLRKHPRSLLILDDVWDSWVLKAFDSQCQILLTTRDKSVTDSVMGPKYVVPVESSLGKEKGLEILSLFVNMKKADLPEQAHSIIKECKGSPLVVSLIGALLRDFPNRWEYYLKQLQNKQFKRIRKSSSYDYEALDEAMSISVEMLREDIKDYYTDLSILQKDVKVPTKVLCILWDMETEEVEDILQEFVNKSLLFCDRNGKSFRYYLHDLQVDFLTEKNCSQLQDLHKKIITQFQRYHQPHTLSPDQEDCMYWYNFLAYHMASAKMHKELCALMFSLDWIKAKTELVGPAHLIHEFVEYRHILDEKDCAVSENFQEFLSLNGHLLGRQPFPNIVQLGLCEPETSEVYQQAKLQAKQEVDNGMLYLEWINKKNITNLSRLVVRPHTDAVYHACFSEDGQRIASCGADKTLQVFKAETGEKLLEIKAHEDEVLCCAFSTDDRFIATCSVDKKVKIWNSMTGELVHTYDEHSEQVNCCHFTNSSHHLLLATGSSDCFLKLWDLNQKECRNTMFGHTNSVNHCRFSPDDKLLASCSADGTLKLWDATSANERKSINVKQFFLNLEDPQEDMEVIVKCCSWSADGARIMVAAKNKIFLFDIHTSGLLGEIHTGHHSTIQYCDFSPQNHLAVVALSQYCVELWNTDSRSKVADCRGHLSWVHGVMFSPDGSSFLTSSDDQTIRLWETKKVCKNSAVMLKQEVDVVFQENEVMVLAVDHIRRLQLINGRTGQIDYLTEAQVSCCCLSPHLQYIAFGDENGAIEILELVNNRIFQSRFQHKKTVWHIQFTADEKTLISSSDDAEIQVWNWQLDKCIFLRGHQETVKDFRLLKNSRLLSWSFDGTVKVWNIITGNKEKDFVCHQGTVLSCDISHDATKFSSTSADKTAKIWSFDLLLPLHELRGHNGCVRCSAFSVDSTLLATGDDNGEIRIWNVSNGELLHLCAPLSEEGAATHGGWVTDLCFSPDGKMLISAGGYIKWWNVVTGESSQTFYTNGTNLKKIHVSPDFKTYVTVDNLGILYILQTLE

[12] = biological target: Low molecular weight phosphotyrosine protein phosphatase (Homo sapiens, UniProt P24666); type: functional; details: read-out: IC50_Mean;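 also: Dose-response confirmation assay measuring inhibition of LMPTP enzyme activity by fluorescence intensity read-out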
Caspase-6 = biological target: T3, Caspase-6 (Homo sapiens, UniProt P55212); assay: inhibition of CASP6 peptide cleavage – biochemical, VEID-R110 fluorescence, cherry-pick, dose response (AID 720632)
T3 sequence (P55212 whole entry): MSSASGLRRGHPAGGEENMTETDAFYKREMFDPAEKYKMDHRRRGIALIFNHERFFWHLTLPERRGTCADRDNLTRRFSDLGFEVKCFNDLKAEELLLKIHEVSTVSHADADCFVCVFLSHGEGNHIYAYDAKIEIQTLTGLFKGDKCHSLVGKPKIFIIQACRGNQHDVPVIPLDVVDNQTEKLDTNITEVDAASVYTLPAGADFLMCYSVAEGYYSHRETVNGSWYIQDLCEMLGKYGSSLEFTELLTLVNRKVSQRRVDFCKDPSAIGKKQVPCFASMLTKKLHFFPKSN

Caspase-7 = Caspase-7 (Homo sapiens, UniProt P55210); assay: caspase-7 enzyme inhibition, selectivity check – biochemical, DEVD-R110 fluorescence, cherry-pick, selectivity assay for caspase-6 inhibitor project, dose response (AID 743295); type: functional
Caspase-7, sequence (P55210 24-198 limits assumed): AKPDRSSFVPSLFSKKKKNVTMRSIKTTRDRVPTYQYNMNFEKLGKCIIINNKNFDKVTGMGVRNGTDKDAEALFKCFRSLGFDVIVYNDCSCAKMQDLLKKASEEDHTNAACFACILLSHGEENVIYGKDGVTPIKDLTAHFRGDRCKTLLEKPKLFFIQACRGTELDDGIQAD
Caspase-7, sequence (P55210 207-303 limits assumed): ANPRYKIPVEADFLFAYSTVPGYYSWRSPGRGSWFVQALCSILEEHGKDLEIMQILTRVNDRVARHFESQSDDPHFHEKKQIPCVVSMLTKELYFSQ

[13] = biological target: T4, Sentrin-specific protease 6 (Homo sapiens, UniProt Q9GZR1); assay: SAR Analysis of small molecule inhibitors of Sentrin-specific protease 6 (SENP6) using a Luminescent assay. [Related pubchem assays (depositor defined):AID2582, AID2599]; type: functional
T4 sequence (Q9GZR1 whole entry): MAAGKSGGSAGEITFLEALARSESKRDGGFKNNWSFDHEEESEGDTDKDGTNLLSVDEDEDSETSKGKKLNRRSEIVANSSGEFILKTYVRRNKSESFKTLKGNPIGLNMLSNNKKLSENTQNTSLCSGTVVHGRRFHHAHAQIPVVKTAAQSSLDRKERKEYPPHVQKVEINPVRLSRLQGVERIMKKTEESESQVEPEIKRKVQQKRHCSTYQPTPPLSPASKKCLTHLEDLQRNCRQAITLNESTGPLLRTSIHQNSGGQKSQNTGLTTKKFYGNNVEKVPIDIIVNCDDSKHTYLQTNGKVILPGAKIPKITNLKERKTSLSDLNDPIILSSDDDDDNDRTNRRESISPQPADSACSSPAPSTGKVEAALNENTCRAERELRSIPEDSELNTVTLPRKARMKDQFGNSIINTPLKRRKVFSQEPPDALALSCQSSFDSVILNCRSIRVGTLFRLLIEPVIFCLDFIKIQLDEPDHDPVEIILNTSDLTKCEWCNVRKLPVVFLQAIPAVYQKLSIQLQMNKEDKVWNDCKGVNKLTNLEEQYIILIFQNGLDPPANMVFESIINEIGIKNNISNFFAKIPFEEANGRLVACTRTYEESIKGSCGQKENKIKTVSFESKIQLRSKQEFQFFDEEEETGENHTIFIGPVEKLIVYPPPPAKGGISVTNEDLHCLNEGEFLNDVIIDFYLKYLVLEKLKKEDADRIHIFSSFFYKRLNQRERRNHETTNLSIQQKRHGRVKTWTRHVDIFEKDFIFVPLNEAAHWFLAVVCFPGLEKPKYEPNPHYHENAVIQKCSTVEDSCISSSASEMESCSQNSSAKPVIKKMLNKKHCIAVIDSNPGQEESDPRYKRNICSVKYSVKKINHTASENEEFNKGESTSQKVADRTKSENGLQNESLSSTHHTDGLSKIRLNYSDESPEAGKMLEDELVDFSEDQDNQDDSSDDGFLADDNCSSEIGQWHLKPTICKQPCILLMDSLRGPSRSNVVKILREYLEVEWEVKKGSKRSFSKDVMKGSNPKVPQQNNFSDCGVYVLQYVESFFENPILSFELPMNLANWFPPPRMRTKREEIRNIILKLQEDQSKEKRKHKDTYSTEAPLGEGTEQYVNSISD

[14] = biological target: T5, Sentrin-specific protease 8 (Homo sapiens, UniProt Q96LD8); assay: inhibition of human SENP8 cleavage activity – biochemical, luminescence, SAR follow-up (AID 504501); type: functional
T5 sequence (Q96LD8 whole entry): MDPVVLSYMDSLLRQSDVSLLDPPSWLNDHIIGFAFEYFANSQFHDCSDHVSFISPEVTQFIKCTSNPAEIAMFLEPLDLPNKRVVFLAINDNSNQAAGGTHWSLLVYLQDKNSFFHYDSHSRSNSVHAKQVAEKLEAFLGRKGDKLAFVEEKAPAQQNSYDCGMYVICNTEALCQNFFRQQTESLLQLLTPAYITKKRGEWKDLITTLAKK

Caspase-3 [15] = biological target: T6, Caspase-3 (Homo sapiens, UniProt P42574); assay: SAR Analysis of small molecule inhibitors of Sentrin-specific proteases (SENPs) using a Caspase-3 Selectivity assay. [Related pubchem assays (depositor defined):AID2540, AID2599, AID434973, AID489001]; type: functional
T6 sequence (P42574 whole entry): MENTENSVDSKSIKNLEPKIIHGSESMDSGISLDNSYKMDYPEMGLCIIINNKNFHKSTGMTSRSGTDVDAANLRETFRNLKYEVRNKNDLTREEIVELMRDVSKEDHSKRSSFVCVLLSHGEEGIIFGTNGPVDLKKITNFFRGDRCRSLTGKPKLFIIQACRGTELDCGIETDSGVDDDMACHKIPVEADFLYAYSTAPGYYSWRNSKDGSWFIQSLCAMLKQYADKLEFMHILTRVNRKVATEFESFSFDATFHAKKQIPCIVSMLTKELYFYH

[16] = biological target: T7, Sentrin-specific protease 7 (Homo sapiens, UniProt Q9BQF6); assay: inhibition of human SENP7 cleavage activity – biochemical, luminescence, SAR follow-up (AID 504497); type: functional
T7 sequence (Q9BQF6 whole entry): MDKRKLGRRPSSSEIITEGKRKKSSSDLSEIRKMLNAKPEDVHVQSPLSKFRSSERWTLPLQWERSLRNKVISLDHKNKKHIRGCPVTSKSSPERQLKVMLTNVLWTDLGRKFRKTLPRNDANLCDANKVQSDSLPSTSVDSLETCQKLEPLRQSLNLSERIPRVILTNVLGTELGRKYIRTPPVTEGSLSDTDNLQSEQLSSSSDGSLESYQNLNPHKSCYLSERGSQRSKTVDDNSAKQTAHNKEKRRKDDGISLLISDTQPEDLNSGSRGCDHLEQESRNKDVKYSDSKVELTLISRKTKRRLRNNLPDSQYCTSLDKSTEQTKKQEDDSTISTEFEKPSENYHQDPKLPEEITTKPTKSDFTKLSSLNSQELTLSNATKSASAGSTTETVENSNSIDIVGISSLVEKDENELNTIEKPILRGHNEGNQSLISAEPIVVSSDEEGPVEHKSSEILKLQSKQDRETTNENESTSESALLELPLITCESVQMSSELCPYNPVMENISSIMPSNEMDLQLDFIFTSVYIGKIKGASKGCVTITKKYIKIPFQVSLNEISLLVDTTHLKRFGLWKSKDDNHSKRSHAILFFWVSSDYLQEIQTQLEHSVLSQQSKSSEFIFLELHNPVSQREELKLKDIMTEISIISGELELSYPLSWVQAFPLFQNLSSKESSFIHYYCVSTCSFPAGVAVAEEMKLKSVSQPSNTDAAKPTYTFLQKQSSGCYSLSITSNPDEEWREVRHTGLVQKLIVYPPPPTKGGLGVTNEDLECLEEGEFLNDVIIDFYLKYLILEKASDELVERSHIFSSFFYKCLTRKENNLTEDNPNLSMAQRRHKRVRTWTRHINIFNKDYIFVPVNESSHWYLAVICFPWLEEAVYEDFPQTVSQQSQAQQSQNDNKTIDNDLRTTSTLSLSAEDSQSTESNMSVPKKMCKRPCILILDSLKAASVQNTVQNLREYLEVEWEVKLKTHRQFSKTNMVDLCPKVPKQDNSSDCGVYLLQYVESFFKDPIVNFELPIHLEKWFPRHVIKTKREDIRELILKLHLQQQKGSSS

[17] = biological target: T5, Sentrin-specific protease 8; type: functional
Caspase-3 [18] = biological target: T6, Caspase-3; type: functional
[19] = biological target: T7, Sentrin-specific protease 7; type: functional
[20] = biological target: T4, Sentrin-specific protease 6; type: functional

Cc1nn(C)c(C)c1/C=C/C(=O)c1ccc(Cl)cc1Cl
EC50 [1]: 84.9 µM (inconclusive)
IC50 (Protein Wnt-3a): 2.49 µM (active)
EC50 [2]: 3.56 µM (active)
IC50 [3]: 14.8 µM (inactive)

COc1ccc(C2CC(c3ccccc3C(F)(F)F)=NN2c2ccc(S(N)(=O)=O)cc2)cc1 (stereo unspecified)
EC50 [4]: 22.6 µM (active)

COc1ccc(-c2nc(CSCC(=O)NC3CCCc4ccccc43)c(C)o2)cc1 (stereo unspecified)
EC50 [5]: 3.95 µM (active)
IC50 [6]: 1.76 µM (active)

Fc1ccc(C(c2nnnn2C2CCCC2)N(Cc2ccco2)CC2CCCO2)cc1 (stereo unspecified)
EC50 [5]: 3.83 µM (active)
EC50 [7]: 14.5 µM (active)

CC1CCN(c2ccc3c(c2)S(=O)(=O)c2cccc(C(=O)NC4CCCCC4)c2C3=O)CC1
IC50 [8]: 14.1 µM (active)
IC50 (Prothrombin): 26.8 µM (active)
IC50 [9]: > 100 µM (inactive)

CCc1ccc(Nc2n[n+](-c3ccccc3)c(-c3ccc(SC)cc3)s2)cc1
EC50 [10]: 23.1 µM (inactive)
EC50 [7]: 10.2 µM (active)

O=C(Nc1cccc(O)c1)C1CC(c2ccc(F)cc2)=NO1 (stereo unspecified)
EC50 [11]: > 100 µM (inactive)

CCCCNC(=O)c1nc(C2CCNCC2)oc1-c1cccc(C(F)(F)F)c1
IC50 [12]: 39.9 µM (inactive)
AC50 (Caspase-6): 1.6 µM (active)
AC50 (Caspase-7): > 70 µM (inactive)

Cc1ccc(NC(=O)C(=O)c2c[nH]c3ccccc23)cc1
IC50 [13]: > 99 µM (inactive)
IC50 [14]: > 99 µM (inactive)
IC50 (Caspase-3 [15]): 9.05 µM (active)
IC50 [16]: 2.33 µM (active)
IC50 [17]: > 100 µM (inactive)
IC50 (Caspase-3 [18]): 18.6 µM (active)
IC50 [19]: 2.41 µM (active)
IC50 [20]: > 100 µM (inactive)
